Where two headings read alike, the source gives them in different places.
Legend:
[1] = tested on: ID8-luc murine ovarian tumor; experiment: ID8-Defb29/VegfA-luc syngeneic model, C57BL6 mice; assay type: in vivo, mouse
Experimental: Female C57BL6 mice were inoculated IP with 3x10^5 ID8-Defb29/VegfA-luc cells in 100 μL PBS. At day 3, mice were imaged for basal level luminescence activity with a Xenogen IVIS 200 after IP injection with luciferin (0.3 mg in 100 μL water). Mice were randomized into groups and treated IP with compounds or vehicle (25% (w/v) β-Hydroxypropylcyclodextrin in water), and imaged again on days indicated.
A-C) Female nude mice were inoculated IP with ES2-luc cells, a human ovarian cancer line expressing luciferase. […] The IP tumor tissue and electroporated normal muscle tissue, being spatially distinct, were identified with separate regions of interest (ROI) after simultaneous imaging with IVIS.
Female C57BL6 mice (4–6 weeks) were challenged IP with ID8-luc tumor.

[2] = Single dose pharmacokinetics in CD1 mice (IV, IP, PO), plasma LC-MS/MS; assay type: in vivo, mouse; settings: for Plasma concentration: individual (Group A)
Experimental: For single dose pharmacokinetic studies, plasma samples (40 μL) were mixed with 200 μL of a water-methanol mixture 1:9, v/v containing the internal standard elacridar at 400 ng/mL. After mixing by pipetting and centrifuging for 4 min at 6000 rpm, 1 μL of each supernatant was injected into LC-MS/MS system. […] Mobile phase A was acetonitrile/water (5:95, v/v) containing 1% formic acid, and mobile phase B was acetonitrile containing 0.1% formic acid. The gradient was initiated with mobile phase B at 15% and was held at 15% for 0.9 minutes with a flow rate of 0.4 mL/min, then increased to 100% and held for 0.1 minutes, and finally returned back to 15% mobile phase B and allowed to equilibrate until 2.2 minutes. […] The lower limit of quantitation (LLOQ) in plasma was 50 ng/mL.
Pharmacokinetic parameters were calculated from mean concentration-time data using non-compartmental methods in Phoenix WinNonlin version 8.3 (Certara, Princeton, NJ). Concentrations after the time 0 sample that were below the LLOQ were imputed with ½ that value. Any concentration that was determined to be an outlier by the Grubbs’s outlier test were excluded from analysis. The maximum plasma concentration (Cmax) and time to Cmax (Tmax) were the observed values. The AUClast was calculated using the log-linear trapezoidal method. AUC was extrapolated to infinity (AUCINF) by dividing the last quantifiable concentration by the terminal disposition rate constant (λz). The λz was determined from at least 3 points on the slope of the terminal phase of the concentration-time profile. The terminal half-life (T1/2) was determined by dividing 0.693 by λz. Apparent clearance (Cl/F) was calculated by dividing the dose administered by AUCINF. Apparent volume of distribution (V/F) was calculated by dividing Cl/F by λz. […] The oral and IP bioavailability was calculated as: F(%)={DoseIV×AUC(0−∞)PO/DosePO×AUC(0−∞)IV}.100%
The Method of Bailer was used to estimate the variance of AUC given the calculated variance of the mean concentration at each time point. […]. In all cases, p < 0.05 was considered statistically significant.
This was followed by a more detailed pharmacokinetic study, in which CD1 (n = 4; […]. Nine time points for IV and IP (5, 15, 30, 60, 120, 240, 360, 480 and 1440 min) and eight time points for PO (15, 30, 60,120, 240, 360, 480 and 1440 min) administration were set for this pharmacokinetic study. Each of the time point treatment group included 4 animals. Mice were injected IP with 2,2,2-tribromoethanol (150 mg/kg) prior to drawing the blood in microtainers containing K3EDTA via retro-orbital bleeding. Blood samples were centrifuged 10 min at 3000 rpm. Brain samples (right lobe) were collected and weighted. All samples were immediately processed, flash-frozen and stored at -70°C until subsequent analysis. […] Pharmacokinetic parameters were calculated from mean concentration-time data using non-compartmental methods in Phoenix WinNonlin version 8.3 (Certara, Princeton, NJ)). Using the Method of Bailer, there was no different in dose normalized AUClast by any route of administration (S17 Table).

[3] = molecular target: T1, 42kDa cellular protein (RPN13) (Homo sapiens, UniProt Q16186); experiment: Competition for RA190B binding in HeLa cell lysate; settings: HeLa lysate pre-treated with compound (5 μM) 45 min 4°C, then RA190B (20 μM)
T1 construct: endogenous in cells; host or cells: HeLa cell lysate
Experimental: NEM (1 mM) used as positive control.

[4] = CD-1, mouse, in vivo, ip, 20 mg/kg, Plasma concentration
[5] = CD-1, mouse, in vivo, ip, 20 mg/kg, Plasma concentration, Mean
[6] = male CD1 mice, IV 5 mg/kg, 0 min
[7] = male, CD1, mouse, in vivo, ip, 20 mg/kg
[8] = male, CD1, mouse, in vivo, iv, 5 mg/kg
[9] = male, CD1, mouse, in vivo, iv, 5 mg/kg, Plasma concentration
[10] = male, CD1, mouse, in vivo, iv, 5 mg/kg, Plasma concentration, Mean
[11] = male, CD1, mouse, in vivo, po, 50 mg/kg
[12] = male, CD-1, mouse, in vivo, po, 50 mg/kg, Plasma concentration
[13] = male, CD-1, mouse, in vivo, po, 50 mg/kg, Plasma concentration, Mean

T1 sequence (Q16186 2-407): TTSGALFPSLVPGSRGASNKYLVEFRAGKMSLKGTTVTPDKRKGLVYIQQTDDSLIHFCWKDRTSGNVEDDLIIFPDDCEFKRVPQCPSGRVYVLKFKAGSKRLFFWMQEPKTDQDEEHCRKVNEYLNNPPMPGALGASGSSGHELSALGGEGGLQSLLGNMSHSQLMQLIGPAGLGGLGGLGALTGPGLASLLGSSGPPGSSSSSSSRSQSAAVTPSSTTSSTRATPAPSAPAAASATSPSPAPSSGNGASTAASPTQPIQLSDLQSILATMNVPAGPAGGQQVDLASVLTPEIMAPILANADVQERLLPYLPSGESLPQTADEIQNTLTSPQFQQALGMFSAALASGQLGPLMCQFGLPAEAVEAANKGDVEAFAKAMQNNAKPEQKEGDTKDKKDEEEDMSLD

For `N#Cc1ccc(/C=C2/C(=O)/C(=C/c3ccc(C#N)cc3)C23CCNCC3)cc1` [Up284], the survival vs vehicle ([1]; C57BL6, 20 mg/kg IP every third day for 4 weeks, p = 0.0004) was “significantly enhanced survival”, the “ID8-luc tumor burden (bioluminescence) vs vehicle” value ([1]; C57BL6, 20 mg/kg IP every third day, day 15, p = 0.0001) was “significantly lower tumor burden” and the “time to clear from the bloodstream to a low steady state” value ([2]; CD1, mouse, in vivo) was 2 to 4 h. The concentration at 15 min [2, 4] was 2480 ng/mL, the concentration at 60 min [2, 4] was 2400 ng/mL and the concentration at 120 min [2, 4] was 1950 ng/mL. For the same molecule, the concentration at 240 min [2, 4] was 1540 ng/mL, the concentration at 1440 min [2, 4] was 750 ng/mL and the concentration at 5 min [2, 5] was 899 ng/mL. It also gave a concentration at 15 min [2, 5] of 2180 ng/mL, a concentration at 30 min [2, 5] of 2460 ng/mL and a concentration at 60 min [2, 5] of 2400 ng/mL. For the same molecule, the concentration at 120 min [2, 5] was 2140 ng/mL, the concentration at 240 min [2, 5] was 1740 ng/mL and the concentration at 360 min [2, 5] was 789 ng/mL. For the same molecule, the concentration at 480 min [2, 5] was 731 ng/mL, the concentration at 1440 min [2, 5] was 610 ng/mL and the “Plasma concentration, Mean” value ([2]; CD-1 mice, IP 20 mg/kg, 0 min) was “BQL”. For the same molecule, the Plasma concentration ([2]; CD-1 mice, IP 20 mg/kg, 0 min) was “BQL”, the “Plasma concentration, Mean” value ([2]; CD-1 mice, PO 50 mg/kg, 0 min) was “BQL” and the Plasma concentration ([2]; CD-1 mice, PO 50 mg/kg, 0 min) was “BQL”. The “adverse effects during PK study” value ([2]; IV 5, IP 20, PO 50 mg/kg) was “No obvious adverse effects”, the “dose normalized AUClast by route of administration” value ([2]; Method of Bailer) was “no different” and the “Plasma concentration, Mean” value [2, 6] was “BQL”. The Plasma concentration [2, 6] was “BQL”, the Plasma concentration ([2]; male CD1 mice, IV 5 mg/kg, 1440 min, class symbol) was “BQL” and the AUC(0-inf) [2, 7] was 69500 ng·h/mL. The AUC(0-t) [2, 7] was 23000 ng·h/mL, the Cmax [2, 7] was 2460 ng/mL and the Tmax [2, 7] was 0.5 h. The bioavailability [2, 7] was 78%, the half-life [2, 7] was 52.8 h and the k el [2, 7] was 3.65e-06 s⁻¹. For the same molecule, the AUC(0-inf) [2, 8] was 9770 ng·h/mL, the AUC(0-t) [2, 8] was 6580 ng·h/mL and the Cmax [2, 8] was 1510 ng/mL. For the same molecule, the Vd [2, 8] was 10 L/kg, the half-life [2, 8] was 19 h and the k el [2, 8] was 1.01e-05 s⁻¹. For the same molecule, the concentration at 5 min [2, 9] was 1620 ng/mL, the concentration at 15 min [2, 9] was 1500 ng/mL and the concentration at 30 min [2, 9] was 1530 ng/mL. It also gave a concentration at 60 min [2, 9] of 793 ng/mL, a concentration at 120 min [2, 9] of 670 ng/mL and a concentration at 240 min [2, 9] of 504 ng/mL. The concentration at 360 min [2, 9] was 256 ng/mL, the concentration at 5 min [2, 10] was 1450 ng/mL and the concentration at 15 min [2, 10] was 1510 ng/mL. For the same molecule, the concentration at 30 min [2, 10] was 1260 ng/mL, the concentration at 60 min [2, 10] was 800 ng/mL and the concentration at 120 min [2, 10] was 669 ng/mL. It also gave a concentration at 240 min [2, 10] of 421 ng/mL, a concentration at 360 min [2, 10] of 238 ng/mL and a concentration at 480 min [2, 10] of 190 ng/mL. The concentration at 1440 min [2, 10] was 116 ng/mL, the AUC(0-inf) [2, 11] was 22800 ng·h/mL and the AUC(0-t) [2, 11] was 15100 ng·h/mL. For the same molecule, the Cmax [2, 11] was 1830 ng/mL, the Tmax [2, 11] was 0.25 h and the bioavailability [2, 11] was 23%. It also gave a half-life [2, 11] of 12.7 h, a k el [2, 11] of 1.51e-05 s⁻¹ and a concentration at 30 min [2, 12] of 1460 ng/mL. For the same molecule, the concentration at 60 min [2, 12] was 1560 ng/mL, the concentration at 120 min [2, 12] was 1650 ng/mL and the concentration at 360 min [2, 12] was 318 ng/mL. The concentration at 15 min [2, 13] was 1830 ng/mL, the concentration at 30 min [2, 13] was 1280 ng/mL and the concentration at 60 min [2, 13] was 1430 ng/mL. The concentration at 120 min [2, 13] was 1220 ng/mL, the concentration at 240 min [2, 13] was 798 ng/mL and the concentration at 360 min [2, 13] was 473 ng/mL. For the same molecule, the concentration at 480 min [2, 13] was 589 ng/mL, the concentration at 1440 min [2, 13] was 425 ng/mL and the concentration at 240 min ([2]; male, mouse, in vivo, CD-1 mice, PO 50 mg/kg, 240 min, individual (Groups A-D), read-out: Plasma concentration) was 366 ng/mL. It also gave a concentration at 480 min ([2]; male, mouse, in vivo, CD-1 mice, PO 50 mg/kg, 480 min, individual (Groups A-D), read-out: Plasma concentration) of 376 ng/mL, a concentration at 5 min ([2]; mouse, in vivo, CD-1 mice, IP 20 mg/kg, 5 min, individual (Groups A-D), read-out: Plasma concentration) of 1060 ng/mL and a bioavailability ([2]; mouse, plasma, intraperitoneal, CD1 mice, IP 20 mg/kg vs IV 5 mg/kg, read-out: IP bioavailability) of 87%. For the same molecule, the bioavailability ([2]; mouse, plasma, CD1 mice, PO 50 mg/kg vs IV 5 mg/kg, read-out: oral bioavailability) was 23% and the “competition for RA190B binding to the 42KDa cellular protein” value [3] was “competed”.
